# Reference: paper PMC7898037, “Improving mitochondria and ER stability helps eliminate upper motor neuron degeneration that occurs due to mSOD1 toxicity and TDP‐43 pathology” (Clinical and Translational Medicine, 2021)
# Test system: WT‐UeGFP mice
# Experiment: Hanging wire test (max 60 s), WT‐UeGFP mice
# Assay type: in vivo
# Parameters: Mean Diff. (wire hanging), vehicle vs. NU-9 / Mean (wire hanging): unit not given here
# Conditions: for Hanging wire test, group mean (Mean 1 / Mean 2): WT-UeGFP mice; for wire hanging, Average / Mean (wire hanging): WT-UeGFP
# Procedure: hSOD1^G93A‐UeGFP, prpTDP‐43^A315T‐UeGFP and WT‐UeGFP mice were weighed and the required NU‐9 dose per weight was calculated (20 or 100 mg/kg), which was administered once daily by oral gavage, starting at postnatal day (P)60 and continuing until P120. Animals from the untreated group received the vehicle (NMP and olive oil) only. For oral administration purposes, 20 ga × 38 mm plastic feeding tubes were used (Instech Laboratories, Inc). The gavage tip was inserted into the mouth directly over the tongue and into the pharynx. While observing the swallowing reflex, the tip was safely and smoothly slid into the esophagus. Once the administration was completed, the gavage tip was pulled straight out.
# Behavior data were collected from hSOD1^G93A‐UeGFP and WT‐UeGFP mice (starting at P60 and every 7 days until P116) and from prpTDP‐43^A315T‐UeGFP mice (at P60, P90, and P120) with the following number of mice for each group: WT‐UeGFP vehicle (n = 10), hSOD1^G93A‐UeGFP vehicle (n = 6), WT‐UeGFP 20 mg/kg/day NU‐9 (n = 5), hSOD1^G93A‐UeGFP 20 mg/kg/day NU‐9 (n = 7), WT‐UeGFP 100 mg/kg/day NU‐9 (n = 11), hSOD1^G93A‐UeGFP 100 mg/kg/day NU‐9 (n = 9), prpTDP‐43^A315T‐UeGFP untreated (n ≥ 3), and prpTDP‐43^A315T‐UeGFP 100 mg/kg/day NU‐9 (n = 4) (Table S3).
# Mice were placed on a wire mesh, which was then inverted and suspended above the home cage; the time when the animal fell was recorded. This test was performed three times for a maximum of 60 s each session, with a 1‐min rest period between each trial. The average performance for each session is presented as the average of the three trials.
# [1] = WT-UeGFP vehicle vs. NU-9 20 mg/kg/day, P102
# [2] = WT-UeGFP vehicle vs. NU-9 20 mg/kg/day, P109
# [3] = WT-UeGFP vehicle vs. NU-9 20 mg/kg/day, P116
# [4] = WT-UeGFP vehicle vs. NU-9 100 mg/kg/day, P102
# [5] = WT-UeGFP vehicle vs. NU-9 100 mg/kg/day, P109
# [6] = WT-UeGFP vehicle vs. NU-9 100 mg/kg/day, P116
structure (smiles),measurement,setting,value
C[C@H](Oc1cc(C(F)(F)F)cc(C(F)(F)F)c1)C1CC(=O)CC(=O)C1 [NU‐9],"Hanging wire test, group mean (Mean 1 / Mean 2)","NU-9 20 mg/kg/day, P102, max 60 s",60 s
same,"Hanging wire test, group mean (Mean 1 / Mean 2)","NU-9 20 mg/kg/day, P109, max 60 s",60 s
same,"Hanging wire test, group mean (Mean 1 / Mean 2)","NU-9 20 mg/kg/day, P116, max 60 s",60 s
same,"Hanging wire test, group mean (Mean 1 / Mean 2)","NU-9 100 mg/kg/day, P102, max 60 s",60 s
same,"Hanging wire test, group mean (Mean 1 / Mean 2)","NU-9 100 mg/kg/day, P109, max 60 s",60 s
same,"Hanging wire test, group mean (Mean 1 / Mean 2)","NU-9 100 mg/kg/day, P116, max 60 s",59.7 s
same,"Mean Diff. (wire hanging), vehicle vs. NU-9","WT-UeGFP vehicle vs. NU-9 20 mg/kg/day, P60",0
same,"Mean Diff. (wire hanging), vehicle vs. NU-9","WT-UeGFP vehicle vs. NU-9 20 mg/kg/day, P67",0.3333
same,"Mean Diff. (wire hanging), vehicle vs. NU-9","WT-UeGFP vehicle vs. NU-9 20 mg/kg/day, P74",2.267
same,"Mean Diff. (wire hanging), vehicle vs. NU-9","WT-UeGFP vehicle vs. NU-9 20 mg/kg/day, P81",0
same,"Mean Diff. (wire hanging), vehicle vs. NU-9","WT-UeGFP vehicle vs. NU-9 20 mg/kg/day, P88",0
same,"Mean Diff. (wire hanging), vehicle vs. NU-9","WT-UeGFP vehicle vs. NU-9 20 mg/kg/day, P95",2
same,"Hanging wire test, mean difference vehicle minus NU-9",[1],0 s
same,"Mean Diff. (wire hanging), vehicle vs. NU-9",[1],0
same,"Hanging wire test, mean difference vehicle minus NU-9",[2],0 s
same,"Mean Diff. (wire hanging), vehicle vs. NU-9",[2],0
same,"Hanging wire test, mean difference vehicle minus NU-9",[3],0 s
same,"Mean Diff. (wire hanging), vehicle vs. NU-9",[3],0
same,"Mean Diff. (wire hanging), vehicle vs. NU-9","WT-UeGFP vehicle vs. NU-9 100 mg/kg/day, P60",1.273
same,"Mean Diff. (wire hanging), vehicle vs. NU-9","WT-UeGFP vehicle vs. NU-9 100 mg/kg/day, P67",0
same,"Mean Diff. (wire hanging), vehicle vs. NU-9","WT-UeGFP vehicle vs. NU-9 100 mg/kg/day, P74",0
same,"Mean Diff. (wire hanging), vehicle vs. NU-9","WT-UeGFP vehicle vs. NU-9 100 mg/kg/day, P81",0
same,"Mean Diff. (wire hanging), vehicle vs. NU-9","WT-UeGFP vehicle vs. NU-9 100 mg/kg/day, P88",0.1818
same,"Mean Diff. (wire hanging), vehicle vs. NU-9","WT-UeGFP vehicle vs. NU-9 100 mg/kg/day, P95",0
same,"Hanging wire test, mean difference vehicle minus NU-9",[4],0 s
same,"Mean Diff. (wire hanging), vehicle vs. NU-9",[4],0
same,"Hanging wire test, mean difference vehicle minus NU-9",[5],0 s
same,"Mean Diff. (wire hanging), vehicle vs. NU-9",[5],0
same,"Hanging wire test, mean difference vehicle minus NU-9",[6],0.303 s
same,"Mean Diff. (wire hanging), vehicle vs. NU-9",[6],0.303
same,"wire hanging, Average","NU-9 20 mg/kg/day po, P60",60 s
same,"wire hanging, Average","NU-9 20 mg/kg/day po, P67",59.6667 s
same,"wire hanging, Average","NU-9 20 mg/kg/day po, P74",57.7333 s
same,"wire hanging, Average","NU-9 20 mg/kg/day po, P81",60 s
same,"wire hanging, Average","NU-9 20 mg/kg/day po, P88",60 s
same,"wire hanging, Average","NU-9 20 mg/kg/day po, P95",58 s
same,"wire hanging, Average","NU-9 20 mg/kg/day po, P102",60 s
same,"wire hanging, Average","NU-9 20 mg/kg/day po, P109",60 s
same,"wire hanging, Average","NU-9 20 mg/kg/day po, P116",60 s
same,Mean (wire hanging),"NU-9 20 mg/kg/day, P60",60
same,Mean (wire hanging),"NU-9 20 mg/kg/day, P67",59.67
same,Mean (wire hanging),"NU-9 20 mg/kg/day, P74",57.73
same,Mean (wire hanging),"NU-9 20 mg/kg/day, P81",60
same,Mean (wire hanging),"NU-9 20 mg/kg/day, P88",60
same,Mean (wire hanging),"NU-9 20 mg/kg/day, P95",58
same,"wire hanging, Average","NU-9 100 mg/kg/day po, P60",58.7273 s
same,"wire hanging, Average","NU-9 100 mg/kg/day po, P67",60 s
same,"wire hanging, Average","NU-9 100 mg/kg/day po, P74",60 s
same,"wire hanging, Average","NU-9 100 mg/kg/day po, P81",60 s
same,"wire hanging, Average","NU-9 100 mg/kg/day po, P88",59.8182 s
same,"wire hanging, Average","NU-9 100 mg/kg/day po, P95",60 s
same,"wire hanging, Average","NU-9 100 mg/kg/day po, P102",60 s
same,"wire hanging, Average","NU-9 100 mg/kg/day po, P109",60 s
same,"wire hanging, Average","NU-9 100 mg/kg/day po, P116",59.697 s
same,Mean (wire hanging),"NU-9 100 mg/kg/day, P60",58.73
same,Mean (wire hanging),"NU-9 100 mg/kg/day, P67",60
same,Mean (wire hanging),"NU-9 100 mg/kg/day, P74",60
same,Mean (wire hanging),"NU-9 100 mg/kg/day, P81",60
same,Mean (wire hanging),"NU-9 100 mg/kg/day, P88",59.82
same,Mean (wire hanging),"NU-9 100 mg/kg/day, P95",60
